Source: patent publication US8729088B2, “Toll-like receptor modulators and treatment of diseases” (The Regents of the University of California, priority 2009, dated 2014)

Tests used:
C57BL/6 mice [1] = conditions: mouse, in vivo
Procedure: (§1) Peritoneal cells were collected four hours after TG injection. Total cells were counted by haematocytometer and neutrophils were morphologically identified.
(§2) 4 hours post TG injection total peritoneal cells were harvested and counted. Neutrophils were identified morphologically and counted.
(§3) One day after the last treatment, mice received intraperitoneal injection of 2 ml thioglycollate medium. […] Three hours after the thioglycollate injection, neutrophil infiltration to the peritoneum was evaluated.

mice = conditions: cited from earlier work
[2] = test system: pro-inflammatory cytokines (IL-6, TNF-α) in sera; test: In vivo kinetics of pro-inflammatory cytokine induction after intravenous injection; set-up: species or system mouse; conditions: 200 nmol per animal i.v.
Procedure: The pharmacokinetics of pro inflammatory cytokine induction by TLR7 conjugates was examined using 6- to 8-week old C57BL/6 mice. […] Blood samples were collected 2, 4, 6, 24 or 48 hours after injections. Sera were separated and kept at −20° C. until use.

Solubility observations = assay type: physicochemical
TLR7 = test: Cytokine induction in BMDM from wild type and TLR7 deficient mice; assay type: cell-based, mouse; conditions: BMDM from TLR7 deficient mice
Procedure: In vitro measurements of cytokine induction were performed using the mouse leukemic monocyte macrophage cell line, RAW264.7. […] BMDM were prepared from C57BL/6 and TLR7 deficient mice as described in Wu, C. C et al., (2007) “Immunotherapeutic activity of a conjugate of a Toll-like receptor 7 ligand”, Proc Natl Acad Sci USA 104, 3990-5.
In general, RAW264.7 cells or BMDM were incubated with various concentrations of conjugates for 18 hours at 37° C., 5% CO2 and culture supernatants were collected. The levels of cytokines (IL-6, IL-12 or TNF-α in the supernatants were determined by ELISA (BD Biosciences Pharmingen, La Jolla, Calif.) (Cho, H. J et al., “Immunostimulatory DNA-based vaccines induce cytotoxic lymphocyte activity by a T-helper cell-independent mechanism” [see comments], Nat Biotechnol 18, 509-14 (2000)), and the results presented in FIG. 2A-D. Data are mean±SEM of triplicates and are representative of three independent experiments. Minimum detection levels of these cytokines were 15 pg/mL.

C57BL/6 mice [3] = test: Thioglycolate induced peritonitis (peritoneal neutrophil infiltration); conditions: 50 nmoles i.v. for three days before thioglycolate
Procedure: as §1, §2, §3

COCCOc1nc(N)c2nc(O)n(Cc3ccccc3)c2n1 [SM, 9-benzyl-8-hydroxy-2-(2-methoxyethoxy) adenine, reference compound]
adverse reaction compared to TG (C57BL/6 mice [1]): no additional adverse reaction
adverse effects in mice (mice; Hayashi et al. 2008): anorexic effects and hypothermia
minimum dose that induced the anorectic reaction (mice; mucosal administration): 50 nmoles per mice
course of serum cytokine levels [2]: declined rapidly after 2 hours
solubility in aqueous solution (Solubility observations): insoluble
IL-12 and IL-6 induction (TLR7): little or no IL-12 and IL-6
neutrophils recruited to the peritoneum (C57BL/6 mice [3]): reduction
total cells recruited to the peritoneum (C57BL/6 mice [3]): reduction
